According to PubChem BioAssay (NCI):
Values joined by “and” are separate entries in the source; they are usually repeats but may differ in a detail not shown here. Equal entries are not always repeated.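 Cultured in 96-well plates, cells were exposed to test compound for 48 hours across five concentrations. Here, GI50 denotes the concentration required for 50% inhibition of growth. TGI marks complete inhibition of growth.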 Where a SMILES comes first, the peptide text is derived from it. Bridges are numbered along the chain shown (N, C = ends).

Experiments:
Assay in all cases: NCI-60 cell line screen, 48 h
A549 NSCLC = tested on: A549 NSCLC
LOX IMVI melanoma = tested on: LOX IMVI melanoma
MDA-MB-231 breast = tested on: MDA-MB-231 breast
OVCAR-3 ovarian = tested on: OVCAR-3 ovarian
SK-MEL-5 melanoma = tested on: SK-MEL-5 melanoma
SN12C renal = tested on: SN12C renal
SR leukemia = tested on: SR leukemia
U251 CNS = tested on: U251 CNS
UACC-257 melanoma = tested on: UACC-257 melanoma
UO-31 renal = tested on: UO-31 renal

Row | SMILES | TGI (A549 NSCLC) | TGI (LOX IMVI melanoma) | TGI (MDA-MB-231 breast) [µM] | TGI (OVCAR-3 ovarian) | TGI (SK-MEL-5 melanoma) | TGI (SN12C renal) | TGI (SR leukemia) [µM] | TGI (U251 CNS) | TGI (UACC-257 melanoma) | TGI (UO-31 renal) | GI50 (A549 NSCLC) | GI50 (LOX IMVI melanoma) [µM] | GI50 (MDA-MB-231 breast) [µM] | GI50 (OVCAR-3 ovarian) [µM] | GI50 (SK-MEL-5 melanoma) [µM] | GI50 (SN12C renal) [µM] | GI50 (SR leukemia) [µM] | GI50 (U251 CNS) [µM] | GI50 (UACC-257 melanoma) [µM] | GI50 (UO-31 renal)
1 | COc1ccc(N=C(C)C(C)=Nc2ccc(OC)cc2)cc1 | > 100 µM | > 100 µM | > 100 | > 100 µM | > 100 µM | > 100 µM | > 100 | > 100 µM | > 100 µM | > 100 µM |  |  |  |  |  |  |  |  |  | 
2 | COC1(C)CCC(OS(C)(=O)=O)CO1 (configuration not stated) | > 100 µM | > 100 µM | > 100 | > 100 µM | > 100 µM | > 100 µM | > 100 | > 100 µM | > 100 µM | > 100 µM |  |  |  |  |  |  |  |  |  | 
3 | CC(=O)c1c(-c2ccco2)c(C#N)c(=S)n(C2OC(CO)C(O)C(O)C2O)c1C (configuration not stated) | > 100 µM | > 100 µM | > 100 | > 100 µM | > 100 µM | > 100 µM | > 100 | > 100 µM | > 100 µM | > 100 µM |  |  |  |  |  |  |  |  |  | 
4 | O=C(NCc1cn(Cc2cccc(Oc3ccccc3)c2)nn1)c1cccnc1NCc1ccc(Cl)cc1 | > 100 µM | > 100 µM | 6.14 | 9.55 µM | 7.4 µM | > 100 µM | > 100 | 8.7 µM | > 100 µM | > 100 µM | 3.21 µM | 3.9 | 2.29 | 3.48 | 2.53 | 3.44 | 3.31 | 2.66 | 3.83 | 3 µM
5 | CC(Cl)(CCC(Cl)C(C)(C)Cl)C(=O)CBr (configuration not stated) | 43 µM | 5.76 µM | 23.9 | 29.5 µM | 21 µM | 28.7 µM | 6.54 | 29.8 µM | 25.5 µM | 22 µM |  |  |  |  |  |  |  |  |  | 
6 | COC(=O)C1CCC(=O)NCCCCC(NC(=O)C(N)CC(=O)O)C(=O)N1 (stereo not drawn) (H-Asp-Lys-Glu-OMe; lactam 2-3; configuration not given here) | > 100 µM | > 100 µM | > 100 | > 100 µM | > 100 µM | > 100 µM | > 100 | > 100 µM | > 100 µM | > 100 µM |  |  |  |  |  |  |  |  |  | 
7 | Cc1cc(NS(=O)(=O)c2ccc(Nc3c4ccccc4nc4c(C(=O)NC(CO)(CO)CO)cccc34)cc2)no1 | > 100 µM | 43.1 µM | > 100 | > 100 µM | > 100 µM | 78.6 µM | 91.4 | > 100 µM | > 100 µM | > 100 µM |  |  |  |  |  |  |  |  |  | 
8 | O=C(Oc1cncc(Cl)c1)c1cc2ccccc2sc1=O | > 100 µM | > 100 µM | > 100 | > 100 µM | > 100 µM | > 100 µM | 76.8 | > 100 µM | > 100 µM | > 100 µM |  |  |  |  |  |  |  |  |  | 
9 | O=C(O)c1c(CC(Cc2ccccc2)C(=O)O)ccc2c1CCC2 (configuration not stated) | > 100 µM | > 100 µM | > 100 | > 100 µM | > 100 µM | > 100 µM | > 100 | > 100 µM | > 100 µM | > 100 µM |  |  |  |  |  |  |  |  |  | 
10 | CCN(CC)CC[n+]1ccc2c(C)c3[nH]c4ccccc4c3c(C)c2c1 | 5.22 µM and 5.45 µM and 8.14 µM | 2.13 µM and 3.73 µM and 16.3 µM | 2.93 | 2.02 µM and 4.55 µM and 2.07 µM | 1.57 µM and 1.28 µM and 2.45 µM | 1.9 µM and 0.925 µM and 2.68 µM | 3.01 | 1.3 µM and 5.1 µM and 1.63 µM | 2.07 µM and 2.59 µM and 1.99 µM | 78.6 µM and 44 µM and 16.8 µM | 0.466 µM and 0.498 µM and 0.951 µM |  |  | 0.934 | 0.239 | 0.195 |  | 0.25 | 0.633 | 22.6 µM and 10.5 µM and 4.12 µM
11 | Nc1ccnc2c1ncn2[C@H]1C[C@H](O)[C@@H](CO)O1 | > 100 µM | > 100 µM | > 100 | > 100 µM | > 100 µM | > 100 µM | > 100 | > 100 µM | > 100 µM | > 100 µM |  |  |  |  |  |  |  |  |  | 
12 | COC(=O)CCCc1nc2ccccc2nc1N=Nc1ccccc1 | > 100 µM | 31.3 µM | > 100 | > 100 µM | > 100 µM | > 100 µM | 72.7 | > 100 µM | > 100 µM | > 100 µM |  |  |  |  |  |  |  |  |  | 
13 | CC(C)(C)c1cc(C(C)(C)C)c(SC2OC(CO)C(O)C(O)C2O)c(O)c1O (configuration not stated) | 21.3 µM | 22.9 µM | 50.9 | 28.4 µM | 18.6 µM | 25.8 µM | > 53 | 20.3 µM | > 72.6 µM | 79.2 µM |  |  |  |  |  |  |  |  |  | 
14 | COc1ccc(/C=C/C(=O)c2cc(CN(C)C)c(O)c(CN(C)C)c2)cc1 | > 100 µM | 31.9 µM | 69.6 | 56 µM | 32.4 µM | > 100 µM | > 100 | > 100 µM | 38.8 µM | 86.9 µM |  |  |  |  |  |  |  |  |  | 
